# Test results published in PMC7463651, “Phase I/Ib Study of Tenalisib (RP6530), a Dual PI3K δ/γ Inhibitor in Patients with Relapsed/Refractory T-Cell Lymphoma” (Cancers, 2020).
# Values joined by “and” are separate entries in the source; they are usually repeats but may differ in a detail not shown here. Equal entries are not always repeated.
# Tests used:
# relapsed/refractory CTCL = test: Efficacy assessment (ORR, DoR), CTCL patients; format: in vivo, human; conditions: for Median DoR (95% CI) / ORR (95% CI): CTCL
# Experimental: (§1) Efficacy assessments included radiological, bone marrow biopsy/aspiration and skin assessments. In some cases, bone marrow disease alone was used for disease assessment. In these cases, response was reported as CR or non-CR.
# (§2) In CTCL patients, assessment of skin lesions was performed at screening, Day 1 of Cycle 3 and 5, approximately 12 weeks thereafter and at the end of treatment (EOT). Skin photographs were obtained for half body global and up to 5 selected representative index lesions at baseline, at Day 1 of Cycle 3, EOT, at PR/CR/progressive disease (PD) and as required as per the discretion of the Investigator. In case of nodal involvement, radiological assessment was performed at screening, Day 1 of Cycle 3 and 5 and approximately 12 weeks thereafter. Skin biopsy was performed from the most indurated area at screening, on C3D1 and to confirm a CR.
# (§3) The efficacy parameters included ORR and DoR. Revised Response Criteria for Malignant Lymphoma (Cheson 2007) was used for evaluation of PTCL [21]. International Society for Cutaneous Lymphomas Response Criteria for Mycosis Fungoides and Sezary Syndrome (SS) and Cutaneous Lymphoma Task Force of the European Organization for Research and Treatment of Cancer criteria were used for evaluation of CTCL patients. For skin scoring, the modified Severity Weighted Assessment Tool was used. For local index lesion skin scoring, the Composite Assessment of Index Lesion Severity was used.
# patients = conditions: cumulative safety data across two studies; cited from earlier work
# relapsed/refractory PTCL = test: Efficacy assessment (ORR, DoR), PTCL patients; format: in vivo, human; conditions: for Median DoR (95% CI) / ORR (95% CI): PTCL
# Experimental: as §1
# (§4) In PTCL patients, radiological assessment was performed at screening, Day 1 of Cycle 3 and 5 and approximately 12 weeks thereafter. Assessments of skin lesions in PTCL patients were performed, if applicable. Bone marrow biopsy/aspirate was performed in patients without measurable but assessable disease at screening and on Day 1 of Cycle 3 and 5, then also approximately 12 weeks thereafter to confirm a CR.
# as §3
# [1] = system: relapsed/refractory T-cell lymphoma (PTCL and CTCL); test: Efficacy assessment (ORR, DoR), all evaluable patients; format: in vivo, human; conditions: for Median DoR (95% CI) / ORR (95% CI): All
# Experimental: as §1, §4, §2, §3
# [2] = Pharmacokinetic assessments in plasma, phase I/Ib study; format: in vivo, human
# Experimental: Complete PK assessments were performed during dose escalation on Day 1 of Cycle 1 and 2 and pre-dose at other time points (pre-dose on Day 8 and Day 15 of Cycle 1 and 2, Day 1 and Day 15 of Cycle 3 and 4 and pre-dose on Cycle 5 and beyond). In the dose expansion phase, samples were collected pre-dose on Day 1 from Cycle 1 to Cycle 8. The PK parameters included maximum plasma concentration (Cmax), time to maximum plasma concentration (Tmax), area under the plasma concentration-time curve from time of administration to the end of the dosing interval (AUC(0-τ)), apparent oral drug clearance during a dosing interval (CLss/F), apparent volume of distribution during a dosing interval (Vz/F) and elimination half-life (t1/2) were evaluated.
# [3] = Dose Escalation 800 mg Fasting, N = 2
# [4] = Dose Escalation 800 mg Fed, N = 4
# [5] = Dose Expansion 800 mg Fasting, N = 12
# [6] = Dose Escalation 800 mg Fasting, N = 1
# [7] = Dose Expansion 800 mg Fasting, N = 10
# [8] = Dose Escalation 800 mg Fasting, N = 3
# [9] = Dose Escalation 800 mg Fed, N = 5
# [10] = Dose Expansion 800 mg Fasting, N = 22
structure (smiles),measurement,setting,value
CC[C@H](Nc1ncnc2[nH]cnc12)c1oc2ccccc2c(=O)c1-c1cccc(F)c1 [Tenalisib],"Partial response (PR), number of patients",relapsed/refractory CTCL; CTCL patients,9 patients
same,Median DoR (95% CI),"relapsed/refractory CTCL; Cumulative Total, N = 20","3.8 months and 3.8 (2.3, 12.8) months"
same,ORR (95% CI),"relapsed/refractory CTCL; Cumulative Total, N = 20","45% and 45.0 (23.1, 68.5) %"
same,ORR (95% CI),"relapsed/refractory CTCL; Dose Escalation 200 mg, N = 1","0.0 (0.0, 97.5) %"
same,Median DoR (95% CI),"relapsed/refractory CTCL; Dose Escalation 400 mg, N = 1","3.8 (-,-) months"
same,ORR (95% CI),"relapsed/refractory CTCL; Dose Escalation 400 mg, N = 1","100.0 (2.5, 100.0) %"
same,Median DoR (95% CI),relapsed/refractory CTCL; [3],"2.3 (-,-) months"
same,ORR (95% CI),relapsed/refractory CTCL; [3],"50.0 (1.3, 98.7) %"
same,Median DoR (95% CI),relapsed/refractory CTCL; [4],"3.3 (1.7, 4.9) months"
same,ORR (95% CI),relapsed/refractory CTCL; [4],"50.0 (6.8, 93.2) %"
same,Median DoR (95% CI),"relapsed/refractory CTCL; Dose Escalation Total, N = 8","3.05 (1.7, 4.6) months"
same,ORR (95% CI),"relapsed/refractory CTCL; Dose Escalation Total, N = 8","50.0 (15.7, 84.3) %"
same,Median DoR (95% CI),relapsed/refractory CTCL; [5],"10.3 (2.6, 19.6) months"
same,ORR (95% CI),relapsed/refractory CTCL; [5],"41.7 (15.2, 72.3) %"
same,Colitis and pneumonitis events,patients,no events of colitis and pneumonitis
same,Transaminitis incidence,patients,10%
same,Partial response (PR),relapsed/refractory PTCL; PTCL patients,4 (26.7%) n (%)
same,Complete response (CR),"relapsed/refractory PTCL; PTCL patients, three patients",20%
same,Median DoR (95% CI),"relapsed/refractory PTCL; Cumulative Total, N = 15","6.5 months and 6.5 (2.9, 14.9) months"
same,ORR (95% CI),"relapsed/refractory PTCL; Cumulative Total, N = 15","46.7% and 46.7 (21.3, 73.4) %"
same,Median DoR (95% CI),"relapsed/refractory PTCL; Dose Escalation 200 mg, N = 2","4.9 (-,-) months"
same,ORR (95% CI),"relapsed/refractory PTCL; Dose Escalation 200 mg, N = 2","50.0 (1.3, 98.7) %"
same,Median DoR (95% CI),"relapsed/refractory PTCL; Dose Escalation 400 mg, N = 1","0.97 (-,-) months"
same,ORR (95% CI),"relapsed/refractory PTCL; Dose Escalation 400 mg, N = 1","100.0 (2.5, 100.0) %"
same,Median DoR (95% CI),relapsed/refractory PTCL; [6],"19.5 (-,-) months"
same,ORR (95% CI),relapsed/refractory PTCL; [6],"100.0 (2.5, 100.0) %"
same,ORR (95% CI),"relapsed/refractory PTCL; Dose Escalation 800 mg Fed, N = 1","0.0 (0.0, 97.5) %"
same,Median DoR (95% CI),"relapsed/refractory PTCL; Dose Escalation Total, N = 5","4.9 (0.0, 19.5) months"
same,ORR (95% CI),"relapsed/refractory PTCL; Dose Escalation Total, N = 5","60.0 (14.7, 94.7) %"
same,Median DoR (95% CI),relapsed/refractory PTCL; [7],"7.0 (1.2, 17.3) months"
same,ORR (95% CI),relapsed/refractory PTCL; [7],"40.0 (12.2, 73.8) %"
same,Median DoR,relapsed/refractory PTCL; three PTCL patients who achieved CR,13.3 months
same,"Complete response (CR), number of patients",[1]; 35 evaluable patients,3 patients
same,Partial response (PR),[1]; 35 evaluable patients,13 n (%) and 13 (37%) n (%)
same,Progressive disease (PD),[1]; 35 evaluable patients,8 (22.9%) n (%)
same,Complete response (CR),"[1]; 35 evaluable patients, three patients",9%
same,Median DoR (95% CI),"[1]; Cumulative Total, N = 35","4.9 months and 4.9 (4.3, 12.0) months"
same,ORR (95% CI),"[1]; Cumulative Total, N = 35","45.7% and 45.7 (28.8, 63.4) %"
same,Median DoR (95% CI),"[1]; Dose Escalation 200 mg, N = 3","4.9 (-,-) months"
same,ORR (95% CI),"[1]; Dose Escalation 200 mg, N = 3","33.3 (0.8, 90.6) %"
same,Median DoR (95% CI),"[1]; Dose Escalation 400 mg, N = 2","2.4 (0.97, 3.8) months"
same,ORR (95% CI),"[1]; Dose Escalation 400 mg, N = 2","100.0 (15.8, 100.0) %"
same,Median DoR (95% CI),[1]; [8],"10.9 (2.3, 19.5) months"
same,ORR (95% CI),[1]; [8],"66.7 (9.4, 99.2) %"
same,Median DoR (95% CI),[1]; [9],"3.3 (1.7, 4.9) months"
same,ORR (95% CI),[1]; [9],"40.0 (5.3, 85.3) %"
same,Median DoR (95% CI),"[1]; Dose Escalation Total, N = 13","3.8 (0.7, 10.2) months"
same,ORR (95% CI),"[1]; Dose Escalation Total, N = 13","53.8 (25.1, 80.8) %"
same,Median DoR (95% CI),[1]; [10],"7.5 (4.7, 15.9) months"
same,ORR (95% CI),[1]; [10],"40.9 (20.7, 63.6) %"
same,Patients who responded,[1]; out of 35 evaluable patients,16 patients
same,Time of response,[1]; responders,Most of the patients responded at Cycle 3 Day 1
same,λz,"[2]; 200 mg BID, C2D1",0.4 h⁻¹
same,λz,"[2]; 400 mg BID, C2D1",0.4 h⁻¹
same,λz,"[2]; 800 mg BID (fed), C1D1",0.3 h⁻¹
same,λz,"[2]; 800 mg BID (fed), C2D1",0.3 h⁻¹
